From patent US10442845B2, “Interferon analogs” (BiOrion Technologies B.V., priority 2009, dated 2019)
Bridge positions count the residues as written; N and C are the ends. Ends that are not written are not given here.

Columns and labels:
mouse NIH3T3 fibroblasts = assay: Anti-fibrotic effects in mouse NIH3T3 fibroblasts (α-SMA staining); assay type: cell-based; settings: mimetic IFNγ 1 μg/ml, 48 hrs
Procedure: Briefly, 3T3 fibroblasts were seeded in 24 well plates at the density of 6×10^4 cells/well, After 24 hrs, cells were starved in 0.5% FBS containing medium for overnight. Thereafter, cells were incubated in starvation medium with different compounds (PDGF 50 ng/ml, TGFβ 10 ng/ml, mimetic IFNγ 1 μg/ml, 50 ng/ml PDGF+1 μg/ml mimetic IFNγ and 10 ng/ml TGFβ+1 μg/ml mimetic IFNγ). After 48 hrs of incubation, cells were washed, fixed with ethanol:acetone (1:1) and stained for α-SMA (marker of activated fibroblasts).

PDGFß-receptor = assay: Binding of FITC-labeled PPB or BiPPB to cultured or freshly isolated primary cells; set-up: species or system rat; settings: for binding (fluorescence microscopy): FITC-coupled, 10 μg/ml, 2 h, room temperature, rat hepatic stellate cells and other cell types tested
Procedure: The binding of BiPPB was performed in primary freshly isolated rat hepatic stellate cells. Cells were seeded in the 8-well glass plates (Lab-Tek, Nunc, Naperville, Ill.) at 30,000 cells/well in the culture medium. After overnight incubation at 37° C./5% CO2, cells were washed with PBS and subsequently incubated with FITC-labeled PPB (monocyclic) or BiPPB (bicyclic: 10 μg/ml) at room temperature. To block the binding, anti-PDGF-βR IgG was added to the cells 1 h before FITC coupled PPB or BiPPB. After 2 h, cells were washed 3 to 4 times with cold PBS and fixed with 4% paraformaldehyde. The nuclei were counterstained with DAPI and mounted in citifluor (anti-fade reagent) and visualized under fluorescent microscope.
Similar binding experiments were performed in primary freshly isolated human myofibroblasts, mouse 3T3 fibroblasts and human hepatic stellate cells (LX2). For human Hepatic stellate cells, the sequence of BiPPB was as follows: […]

[1] = tested on: Human Hepatocytes (HepG2); assay: ICAM1 expression in human hepatocytes (HepG2); assay type: cell-based; settings: 1 ug/ml, 24 hrs, 18srRNA housekeeping control
Procedure: Human Hepatocytes (HepG2) were plated in 12 well plates (1×10^5 cells/well). The cells were grown overnight in 5%/37° C./CO2 incubator. […] After 24 hrs of incubation, cells were lysed, RNA was isolated and reverse transcribed. The cDNA was used for the analysis of Inter-Cellular Adhesion Molecule 1 (ICAM1) expression, which is known to be induced in response to IFNγ. 18srRNA was used a housekeeping control.

[2] = tested on: established advanced liver fibrosis mouse model; assay: Established advanced liver fibrosis mouse model (8 weeks CCl4), liver section staining; assay type: in vivo
Procedure: Male balb/c mice (20-22 g) were treated with olive oil or increasing doses of CCl4 (week 1: 0.5 ml/kg; week 2: 0.8 ml/kg and week 3-8: 1 ml/kg prepared in olive oil) twice weekly by intra-peritoneal injections for 8 weeks. In week 7 and 8, mice were treated intravenously with PBS, mimeticIFNγ-PEG or MimeticIFNγ-PEG-BiPPB (5 μg/mice, thrice per week). All mice were sacrificed at week 8; blood and liver samples were collected for subsequent measurements. The liver sections were stained for Collagen I and desmin, CD68, 33D1 and MHC class II.

[3] = tested on: acute CCL4-induced liver injury mouse model; assay: Blood count analysis (side effects) in acute CCl4-induced liver injury mouse model; assay type: in vivo; settings: 50,000 U/mice at day 2 and 3; p<0.0025
Procedure: At day 1, the animals were given a single intra-peritoneal dose (1 ml/kg) of carbon tetrachloride (CCl4) in olive oil or olive oil (controls n=6). After 24 hrs of CCl4 injection, at day 2 and 3, animals were treated either with PBS (n=6), 50,000 U/mice of IFNγ (n=6), 50,000 U/mice of mimetic IFNγ (n=5), 50,000 U/mice of IFNγ-BiPPB (n=6), 50,000 U/mice of Mimetic IFNγ-BiPPB (n=6).

[4] = tested on: liver fibrosis models induced with CCl4 in mice; assay: 4 days (acute) and 8 weeks (chronic) CCl4 liver fibrosis models in mice; assay type: in vivo, mouse
Procedure: In vivo, the targeted conjugate was examined in 4 days (acute) and 8 weeks (chronic) liver fibrosis models induced with CCl4 in mice. Several fibrotic parameters and infiltration of inflammatory cells were assessed in the livers using immunohistochemistry and gene expression analysis.

[5] = 5 μg/mice i.v. thrice per week, week 7 and 8, vs untreated CCl4-mice

AKFEVNNPQVQRQAFNELIRVVHQLLPESSLRKRKRSR (listed as Mus musculus) [Recombinant mimetic IFNγ]
anti-fibrotic effects (α-Smooth muscle actin staining) (mouse NIH3T3 fibroblasts): anti-fibrotic effects

C(1)S R N L I D C(1)G G G D G G C(2)S R N L I D C(2) (CSRNLIDCGGGDGGCSRNLIDC; disulfide 1-8, 15-22; also: FITC label) [BiPPB, Bicyclic peptide against the PDGF-beta-receptor; KGSGSGG linker variant for human hepatic stellate cells]
binding (fluorescence microscopy) (PDGFß-receptor): specifically binds | binding (fluorescence microscopy) (PDGFß-receptor; listed as FITC-coupled BiPPB): significant binding | species specificity of binding (PDGFß-receptor; Myo-fibroblast-like cells of rat, mouse and human): species non-specific | binding after blocking with PDGF receptor antibody (PDGFß-receptor; anti-PDGF-βR IgG added 1 h before): almost completely blocked

FEVNNPQVQRQAFNELIRVVHQLLPESSLRKRKRSR [mouse truncated IFNγ, signaling moiety of murine IFNγ (mimIFNγ), without targeting domain]
ICAM1 expression [1]: neither mouse truncated IFNγ nor Lac-HSA induced ICAM1 expression | ICAM1 expression ([1]; listed as mouse (truncated) INFγ): ineffective

human IFNγ: human interferon gamma, positive control in human hepatocytes
ICAM1 expression [1]: upregulated ICAM1 expression

B1: INFγ: full length mouse Interferon gamma, SEQ ID NO: 54 (protein, listed as Mus musculus)
chain: MNATHCILALQLFLMAVSGCYCHGTVIESLESLNNYFNSSGIDVEEKSLFLDIWRNWQKDGDMKILQSQIISFYLRLFEVLKDNQAISNNISVIESHLITTFFSNSKAKKDAFMSIAKFEVNNPQVQRQAFNELIRVVHQLLPESSLRKRKRSRC
collagen I staining (liver sections) [2, 5]: only a small reduction | desmin staining (liver sections) [2, 5]: only a small reduction | MHCII expression in livers ([2]; chronic CCl4 model): increased MHCII expression | infiltration of inflammatory cells (CD68+ macrophages, neutrophils, 33D1+ dendritic cells) in livers ([2]; chronic CCl4 model): induced infiltration of inflammatory cells | reduction in platelet count (PLT) [3]: reduction in platelet count | fibrotic parameters ([4]; both acute and chronic liver fibrosis models): only a moderate reduction | MHCII expression ([4]; data not shown): increased MHCII expression | infiltration of inflammatory cells (CD68+ macrophages, neutrophils, 33D1+ dendritic cells) / inflammatory response ([4]; data not shown): induced infiltration of inflammatory cells
